In US20080261918A1, “Silicon Compounds and Their Use” (priority 2003, published 2008):

Target: T1, human GnRH receptors (Homo sapiens, UniProt P30968)
T1 construct: expressed in transfected cells; host or cells: CHO-K1
T1 sequence (P30968 1-328): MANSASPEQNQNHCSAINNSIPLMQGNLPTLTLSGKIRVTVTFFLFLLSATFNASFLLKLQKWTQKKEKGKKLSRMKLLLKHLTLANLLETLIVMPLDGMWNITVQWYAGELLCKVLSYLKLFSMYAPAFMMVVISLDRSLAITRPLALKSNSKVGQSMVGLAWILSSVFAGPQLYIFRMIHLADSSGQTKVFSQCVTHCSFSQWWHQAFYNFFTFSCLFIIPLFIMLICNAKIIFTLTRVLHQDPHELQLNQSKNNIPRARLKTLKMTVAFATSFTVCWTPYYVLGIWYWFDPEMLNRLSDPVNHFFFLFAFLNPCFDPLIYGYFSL
Test: Human GnRH receptor functional assay (intracellular calcium release)
Type: cell-based
Conditions: CHO-K1 cells expressing human GnRH receptors; block of GnRH (EC80)-induced calcium release; 20 min preincubation
Procedure: Human GnRH Receptor Functional Assay
GnRH-receptor antagonists may be functionally assessed by measurement of change in intracellular calcium levels induced by Gαq mediated increase in IP3 levels. The ability of compounds to block the intracellular release of calcium by GnRH in CHO-K1 cells expressing human GnRH receptors is determined as a measure of the compound's antagonist activity in vitro. Approximately 30,000 cells per assay well (half well 96 well assay plate—Corning) are seeded in normal culture medium. Twenty four hours after seeding the cells are loaded with a calcium sensitive fluorescent dye by replacing the culture medium with assay buffer (1×Hanks buffered saline, 25 mM HEPES, 0.1% w/v fatty acid free BSA, pH7.4) containing 2.5 mM probenecid and 1×Calcium Plus reagent (Molecular) Devices. Cells are incubated at 37° C. for 1 hour to allow for dye uptake. […] After incubation with test compounds the assay plate is placed in a Flexstation II (Molecular Devices) and GnRH is added at the determined EC80 concentration (final). Ligand-dependent changes in intracellular calcium levels are determined by measuring changes in fluorescence of the dye at […] following excitation at 485 nm. Percentage inhibition curves are plotted using 4-parameter fit algorithm and IC50 values calculated for each compound.

IC50: 160 nM
SMILES: COc1nc(N2CCC(N(C)C)C2)nc(OC)c1NC(=O)c1ccc(Oc2cc([Si](C)(C)C)ccc2C)o1 (stereo not shown) [Example 2, N-(2-(3-(dimethylamino)pyrrolidin-1-yl)-4,6-dimethoxypyrimidin-5-yl)-5-(2-methyl-5-(trimethylsilyl)phenoxy)furan-2-carboxamide]
